This is an account of results in patent US5399691A, “Substituted benzoylurea derivatives or their salts” (Ishihara Sangyo Kaisha Ltd., priority 1991, dated 1995).

What is called solubility is the dissolved amount per volume that the medium holds. In general, ILS refers to the gain in survival time of treated over control animals, in per cent. A low value points to a small benefit in survival.

Values after ≈ are worked out from the molar mass of the structure shown. Like-named read-outs stand apart in the source and are kept apart here. Where only a bound is given, the exact number is not on record here.

One series relates to BDF1 mice. The experiment in a line: Acute toxicity. It counts as in vivo. The conditions noted are these: intravenous, 25 mg/kg mouse, Formulation Example 1. The procedure: (§1) None of BDF1 mice were dead by intravenously administering each formulation of Compound Nos. 1 to 9, 20, 49 and 53 of the present invention prepared in accordance with Formulation Example 1 in an amount of 25 mg/kg mouse (on the basis of compound).
(§2) 0.125 part by weight of the above mentioned Compound No. 1 was dissolved in 5 parts by weight of N,N-dimethylacetamide and 5 parts by weight of polyoxyethylene sorbitan monooleate, and 90 parts by weight of physiological saline was added thereto to form a solution formulation in an agate mortar.

A short description of another series: Acute toxicity. The class given is in vivo. Conditions: mouse, in vivo; BDF1 mice, intravenous, Formulation Example 1; read-out: acute toxicity value (LD 50). The procedure: as §1, §2
The nature of series [1]: Solubility in water-soluble solvent by HPLC (Test Example 2). It counts as physicochemical. The procedure: About 2 mg of each of the compounds of the present invention shown in the following Table 7 was accurately weighed, and was completely dissolved in 2 ml of N,N-dimethylacetamide. The content was then transferred into a 10 ml-measuring flask, and its volume was made constant with acetonitrile. 3 ml of the resultant solution was placed in a 50 ml-measuring flask, and its volume was adjusted constant with acetonitrile to prepare a standard solution. Next, about 2 mg of each of the compounds of the present invention was weighed, and was placed in an agate mortar. Thereafter, 1.5 ml of a test liquid (water-soluble solvent) was added thereto, and the content was mixed for 5 minutes. A suspension thus obtained, was transferred into a 1.5 ml-microtube, and was centrifuged at 15,000 r.p.m. for 10 minutes. The supernatant fluid was placed in a 1 ml-microtube, and was centrifuged again under the same conditions. 0.1 ml of the supernatant fluid thus obtained was diluted with 0.9 ml of acetonitrile to prepare a measuring liquid. The above standard solution and the measuring liquid were analyzed by high pressure liquid chromatography (HPLC), and their solubilities were measured by absolute calibration curve method.
Column: Nucleosil 5 C18, diameter=4.6 mm, length=250 mm
Mobile phase: acetonitrile/water/acetic acid=60/40/0.1
Detection: UV 265 nm, Column temperature: 40° C.,
Sensitivity: 0.005 AUFS or 0.16 AUFS,

The next series has as its system P-388 leukemia. The experiment in a line: Antitumor activity against P-388 leukemia, increase life span (Test Example 1). The class given is in vivo, BDF1 mouse (murine). Conditions: Mus musculus, P388, intravenous, days 1, 5 and 9. An excerpt:
The compounds of the present invention are effective against experimental murine tumors such as P-388 leukemia, L-1210 leukemia, B-16 melanoma, M-5076 sarcoma, Colon 38, Colon 26 and Lewis lung carcinoma. On the other hand, certain in vivo test systems and protocols have been developed by National Cancer Institute for testing compounds to determine the effectiveness of test compounds as antineoplastic agents. These have been reported in "Cancer Chemotherapy Reports", Part III, Vol. 3, No. 2 (1972) written by Deran, Greenberg, MacDonald, Schumacher and Abott. P-388 leukemia is the most standard experimental murine tumor, and it is known that many of drugs effective against human tumor are also effective against this leukemia. Generally, the effectiveness of a drug for these experimental murine tumors is evaluated by the extended median survival time of a test mouse group to which a test drug is administered on the basis of the median survival time of a control mouse group to which no drug is administered. If the extended median survival time is at least 25-30% longer, the administered drug is determined to be effective.
1×10^6 of P-388 leukemia cells per mouse were intraperitoneally transplanted into BDF1 mouse. Each formulation was intraperitoneally or intravenously administered on the 1st, 5th and 9th days after the transplantation.
The increase life span of each group was determined by comparing the median survival time (days) of a test group to which a test drug is administered and the median survival time (days) of a control group to which physiological saline was administered at the same part as in the case of the test group. Among the tested drug formulations, the compounds of the present invention were formulated in accordance with the below-mentioned Formulation Example 1, and the comparative compounds as shown in Table 8 were formulated in accordance with the below-mentioned Formulation Example 2.
(Note) * Increase life span is calculated by the following equation:
Increase life span % (ILS)=(a/b×100)-100 a: Median survival days of test group of drug administration b: Median survival days of control group of physiological saline administration 0.125 part by weight of the above mentioned Compound No. 1 was dissolved in 5 parts by weight of N,N-dimethylacetamide and 5 parts by weight of polyoxyethylene sorbitan monooleate, and 90 parts by weight of physiological saline was added thereto to form a solution formulation in an agate mortar.
0.125 part by weight of Comparative Compound No. 1 was dissolved in 5 parts by weight of N,N-dimethylacetamide and 5 parts by weight of polyoxyethylene sorbitan monooleate, and 90 parts by weight of physiological saline was added thereto to form a suspension formulation in an agate mortar.

In the case of `Cc1cc(NC(=O)NC(=O)c2ccccc2NC(=O)[C@H](C)N)ccc1Oc1ncc(Br)cn1` [compound 49], in the series with BDF1 mice, the BDF1 mice dead entry is “None”. Besides, the LD50 in “Acute toxicity” is at least 25 mg/kg. Moreover, the solubility in series [1] (10% peg 400 aqueous, organic solvent or mixture, 10% polyethylene glycol #400 aqueous solution, read-out: Solubility, test solution C) was determined as 9.8 mg/mL (≈ 19.1 mM); in series [1] (distilled water, water, read-out: Solubility, test solution A), 7.6 mg/mL (≈ 14.8 mM); in series [1] (physiological saline, read-out: Solubility, test solution B), 1.8 mg/mL (≈ 3.51 mM). The compound also gave an increase in lifespan (ILS) at 6.25 mg/kg in the series with P-388 leukemia (6.25 mg/kg) of 14%. In the series with P-388 leukemia (12.5 mg/kg), this compound had an ILS at 12.5 mg/kg of 76%. The compound also came in with an ILS at 25 mg/kg in the series with P-388 leukemia (25 mg/kg) of 190%.
